Experimental data published in patent publication US20240300932A1, “N-PHENYLIMINE DERIVATIVE AND PREPARATION METHOD AND USE THEREOF” (Guizhou University, priority 2023, published 2024).

Columns and labels:
Trifoliumre pensL. = test: Post-emergence herbicidal activity test (stem and leaf spray, pot culture); format: in vivo; settings: 3 weeks after spraying
How it was run: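 Pot-grown weeds in loam (pH 7), greenhouse at 20–30 °C, sprayed once post-emergence at the 2–3-leaf stage. Compound in acetone with Tween 80 plus methyl oleate oil (1.5 L/ha), applied at 10, 5 and 2.5 g/mu by spray tower. Effect scored 3 weeks after spraying, averaged over three repeats.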

Setaria viridis = test: Post-emergence herbicidal activity test (stem and leaf spray, pot culture); format: in vivo; settings: 3 weeks after spraying
How it was run: (§1)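 Graded 0–5 on fresh-weight growth control rate 3 weeks after a single spray-tower application at 10, 5 or 2.5 g/mu. Compounds in acetone with Tween 80 and methyl oleate synergist (1.5 liters/ha), applied to greenhouse weeds at 2- to 3-leaf stage.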

Portulaca oleracea = test: as above; format: in vivo; settings: 3 weeks after spraying
How it was run: as §1

Echinochloa crusgalli = test: as above; format: in vivo; settings: 3 weeks after spraying
How it was run: as §1

Amaranthus retroflexus = test: as above; format: in vivo; settings: 3 weeks after spraying
How it was run: as §1

Abutilon theophrasti = test: as above; format: in vivo; settings: 3 weeks after spraying
How it was run: as §1

melting point [°C]	SMILES	Post-emergence herbicidal activity, Trifoliumre pensL. (grade) (Trifoliumre pensL.; dosage 2.5 g/mu)	Post-emergence herbicidal activity, Trifoliumre pensL. (grade) (Trifoliumre pensL.; dosage 5 g/mu)	Post-emergence herbicidal activity, Trifoliumre pensL. (grade) (Trifoliumre pensL.; dosage 10 g/mu)	Post-emergence herbicidal activity, S. viridis (grade) (Setaria viridis; dosage 2.5 g/mu)	Post-emergence herbicidal activity, S. viridis (grade) (Setaria viridis; dosage 5 g/mu)	Post-emergence herbicidal activity, S. viridis (grade) (Setaria viridis; dosage 10 g/mu)	Post-emergence herbicidal activity, P. oleracea (grade) (Portulaca oleracea; dosage 2.5 g/mu)	Post-emergence herbicidal activity, P. oleracea (grade) (Portulaca oleracea; dosage 5 g/mu)	Post-emergence herbicidal activity, P. oleracea (grade) (Portulaca oleracea; dosage 10 g/mu)	Post-emergence herbicidal activity, E. crusgalli (grade) (Echinochloa crusgalli; dosage 2.5 g/mu)	Post-emergence herbicidal activity, E. crusgalli (grade) (Echinochloa crusgalli; dosage 5 g/mu)	Post-emergence herbicidal activity, E. crusgalli (grade) (Echinochloa crusgalli; dosage 10 g/mu)	Post-emergence herbicidal activity, A. retroflexus (grade) (Amaranthus retroflexus; dosage 2.5 g/mu)	Post-emergence herbicidal activity, A. retroflexus (grade) (Amaranthus retroflexus; dosage 5 g/mu)	Post-emergence herbicidal activity, A. retroflexus (grade) (Amaranthus retroflexus; dosage 10 g/mu)	Post-emergence herbicidal activity, A. theophrasti (grade) (Abutilon theophrasti; dosage 2.5 g/mu)	Post-emergence herbicidal activity, A. theophrasti (grade) (Abutilon theophrasti; dosage 5 g/mu)	Post-emergence herbicidal activity, A. theophrasti (grade) (Abutilon theophrasti; dosage 10 g/mu)
148 to 150	O=C(COc1cc(N2C(=O)C3=C(CCCC3)C2=O)c(F)cc1Cl)c1ccc(Cl)cc1 [Compound C11, 2-(4-chloro-2-fluoro-5-(2-oxo-2-(4-chlorophenyl)ethoxy)phenyl)-4,5,6,7-tetrahydro-1H-isoindole-1,3(2H)-dione]	5 (Grade 5: the growth control rate is greater than or equal to 85%)	5 (Grade 5: the growth control rate is greater than or equal to 85%)	5 (Grade 5: the growth control rate is greater than or equal to 85%)	2 (Grade 2: the growth control rate is greater than or equal to 20% and less than 40%)	3 (Grade 3: the growth control rate is greater than or equal to 40% and less than 60%)	4 (Grade 4: the growth control rate is greater than or equal to 60% and less than 85%)	5 (Grade 5: the growth control rate is greater than or equal to 85%)	5 (Grade 5: the growth control rate is greater than or equal to 85%)	5 (Grade 5: the growth control rate is greater than or equal to 85%)	1 (Grade 1: the growth control rate is greater than or equal to 5% and less than 20%)	2 (Grade 2: the growth control rate is greater than or equal to 20% and less than 40%)	3 (Grade 3: the growth control rate is greater than or equal to 40% and less than 60%)	5 (Grade 5: the growth control rate is greater than or equal to 85%)	5 (Grade 5: the growth control rate is greater than or equal to 85%)	5 (Grade 5: the growth control rate is greater than or equal to 85%)	5 (Grade 5: the growth control rate is greater than or equal to 85%)	5 (Grade 5: the growth control rate is greater than or equal to 85%)	5 (Grade 5: the growth control rate is greater than or equal to 85%)
158 to 160	O=C(COc1cc(N2C(=O)C3=C(CCCC3)C2=O)c(F)cc1Cl)c1ccc(F)cc1F [Compound C12, 2-(4-chloro-2-fluoro-5-(2-oxo-2-(2,4-difluorophenyl)ethoxy)phenyl)-4,5,6,7-tetrahydro-1H-isoindole-1,3(2H)-dione]	5 (Grade 5: the growth control rate is greater than or equal to 85%)	5 (Grade 5: the growth control rate is greater than or equal to 85%)	5 (Grade 5: the growth control rate is greater than or equal to 85%)	2 (Grade 2: the growth control rate is greater than or equal to 20% and less than 40%)	3 (Grade 3: the growth control rate is greater than or equal to 40% and less than 60%)	4 (Grade 4: the growth control rate is greater than or equal to 60% and less than 85%)	5 (Grade 5: the growth control rate is greater than or equal to 85%)	5 (Grade 5: the growth control rate is greater than or equal to 85%)	5 (Grade 5: the growth control rate is greater than or equal to 85%)	1 (Grade 1: the growth control rate is greater than or equal to 5% and less than 20%)	2 (Grade 2: the growth control rate is greater than or equal to 20% and less than 40%)	3 (Grade 3: the growth control rate is greater than or equal to 40% and less than 60%)	5 (Grade 5: the growth control rate is greater than or equal to 85%)	5 (Grade 5: the growth control rate is greater than or equal to 85%)	5 (Grade 5: the growth control rate is greater than or equal to 85%)	5 (Grade 5: the growth control rate is greater than or equal to 85%)	5 (Grade 5: the growth control rate is greater than or equal to 85%)	5 (Grade 5: the growth control rate is greater than or equal to 85%)
151 to 153	COc1ccc(C(=O)COc2cc(N3C(=O)C4=C(CCCC4)C3=O)c(F)cc2Cl)cc1 [Compound C13, 2-(4-chloro-2-fluoro-5-(2-oxo-2-(4-methoxyphenyl)ethoxy)phenyl)-4,5,6,7-tetrahydro-1H-isoindole-1,3(2H)-dione]	5 (Grade 5: the growth control rate is greater than or equal to 85%)	5 (Grade 5: the growth control rate is greater than or equal to 85%)	5 (Grade 5: the growth control rate is greater than or equal to 85%)	2 (Grade 2: the growth control rate is greater than or equal to 20% and less than 40%)	3 (Grade 3: the growth control rate is greater than or equal to 40% and less than 60%)	4 (Grade 4: the growth control rate is greater than or equal to 60% and less than 85%)	5 (Grade 5: the growth control rate is greater than or equal to 85%)	5 (Grade 5: the growth control rate is greater than or equal to 85%)	5 (Grade 5: the growth control rate is greater than or equal to 85%)	1 (Grade 1: the growth control rate is greater than or equal to 5% and less than 20%)	2 (Grade 2: the growth control rate is greater than or equal to 20% and less than 40%)	3 (Grade 3: the growth control rate is greater than or equal to 40% and less than 60%)	5 (Grade 5: the growth control rate is greater than or equal to 85%)	5 (Grade 5: the growth control rate is greater than or equal to 85%)	5 (Grade 5: the growth control rate is greater than or equal to 85%)	5 (Grade 5: the growth control rate is greater than or equal to 85%)	5 (Grade 5: the growth control rate is greater than or equal to 85%)	5 (Grade 5: the growth control rate is greater than or equal to 85%)
